Laboratory results reported in patent US20230027864A1, “COMPOSITIONS AND METHODS FOR DELIVERY OF AGENTS TO IMMUNE CELLS” (ModernaTX, Inc., priority 2018, published 2023).

Columns and labels:
T cells [1] = assay: LNP association and GFP mRNA expression in T cells of human PBMCs; type: cell-based; settings: for immune cell delivery potentiating ability in T cells, sterol panel: structural lipid component of the LNP, FIG. 31; for immune cell delivery potentiating ability in T cells, helper lipid panel: phospholipid component of the LNP, FIG. 32; for immune cell delivery potentiating ability in T cells, amino lipid panel: ionizable lipid component of the LNP, FIG. 30; for delivery and uptake by T cells, only cholesterol as structural lipid: Experiment 2, mean % cells expressing the mRNA relative to positive control (Compound X, β-sitosterol)
Method: (§1) In a second series of experiments, additional compounds, were tested in the LNPs for their ability to enhance delivery to T cells. For these experiments, the association of the LNP with cells and the expression of mRNA-encoding protein within the transfected cells was assessed at the cell-by-cell level. Peripheral blood mononuclear cells (PBMCs) from human donors were used. PBMCs were predominately T cells (40-60%), B cells (3-15%), and monocytes (15-35%), but also contained small numbers of other cell types. LNPs were incubated with serum or PBS for 30 minutes and then added to the PBMCs. The LNP concentration was 0.050 mg/ml, the LNP volume was 0.1 ml.
(§2) LNPs contained 0.1% Rhodamine-DOPE in addition to the other LNP components to facilitate detection. Thus, the ratios set forth in the tables below include 0.1 for the rhodamine label. For example, 50:10:10:27.9:2:0.1 AL:DSPC:chol:sterol:Cmp 428 indicates 50% amino lipid as the ionizable lipid, 10% DSPC as the phospholipid, 10% cholesterol, 27.9% phytosterol, 2% Compound 428 as the PEG lipid and 0.1% for the rhodamine-DOPE label. To prepare a non-labeled LNP, the same ratios are used except that the 0.1% rhodamine label is omitted and an additional 0.1% of structural lipid (cholesterol or cholesterol/phytosterol blend) is used (e.g., 27.9% becomes 28%).
(§3) Cells were sorted by flow cytometry into subsets based on expression of certain markers: CD3 (T cells), CD20 (B cells), and CD3-, CD20-, CD14+(Monocytes).
(§4) mRNA encoding GFP was used as a model agent to effect expression of an intracellular protein.
(§5) When conducting flow cytometry, the Y-axis was signal from the rhodamine tag on the LNP and the X-axis was the GFP signal showing expression of the protein.
(§6) The “associated” population is any rhodamine+ and/or GFP+ cell and the percent of these cells was calculated by dividing by the total number of cells. The “expression” population is any GFP+ cell and the percent of these cells was calculated by dividing by the total number of cells. The percent of associated cells expressing was obtained by dividing the % expressing cells by the % associated cells.

monocytes = assay: LNP association and GFP mRNA expression in monocytes of human PBMCs; type: cell-based; settings: for immune cell delivery potentiating ability in monocytes, sterol panel: structural lipid component, FIG. 38; for immune cell delivery potentiating ability in monocytes, helper lipid panel: phospholipid component, FIG. 39; for immune cell delivery potentiating ability in monocytes, amino lipid panel: ionizable lipid component, FIG. 37
Method: as §1, with “this Example, LNPs were made with various lipid components and at different ratios and” for “a second series of experiments, additional compounds,”, “tested” for “tested in the LNPs”, “transfect monocytes in vitro.” for “enhance delivery to T cells.”, “(40-60%)” for “(40-60%),”
as §2, §3, §4, §5, §6

T cells [2] = assay: Additional LNPs: T cell transfection in vitro, mOX40L mRNA, labeled LNPs; type: cell-based, human; settings: for immune cell delivery potentiating ability in T cells, amino lipid panel: ionizable lipid component, FIG. 43
Method: In this Example, additional LNPs comprising various lipid components and at different ratios were made and tested for their ability to transfect T cells in vitro. Transfection was performed as in Example 5 using LNPs encapsulating an mRNA encoding mouse OX40L. LNPs were labeled and the results were determined for the mean % cells with LNPs associated, the mean % cells expressing mOX40L and the % of LNP-associated cells expressing mOX40L, as described hereinbefore.

splenic CD3+ T cells = assay: Transfection of splenic T cells in vivo in mice; settings: for capability to transfect splenic CD3+ T cells in vivo: as ionizable lipid, 0.5 mg/kg i.v., 24 hours, FIG. 36; for transfection of CD3+ T cells in vivo, only cholesterol as structural lipid: FIG. 36 lanes 6 and 8, relative to positive control LNP (Compound X, β-sitosterol)
Method: In this Example, LNPs were made with various lipid components identified in the in vitro screens described in Example 17 and mice were administered the LNPs encapsulating a murine OX40L-encoding mRNA. The compositions shown below in Table 26 were tested in which the ratios of the components in each composition was 50% ionizable lipid, 10% phospholipid, 38.5% structural lipid and 1.5% PEG lipid.
Mice were treated intravenously with a single injection at a dose concentration of 0.1 mg/ml and at a dose level of 0.5 mg/kg. PBS was used as a negative control.

CC(C)[C@H](C)CC[C@@H](C)[C@H]1CC[C@H]2[C@@H]3CC=C4C[C@@H](O)CC[C@]4(C)[C@H]3CC[C@]12C [camposterol]
immune cell delivery potentiating ability in T cells, sterol panel (T cells [1]): exhibited immune cell delivery potentiating ability in T cells
immune cell delivery potentiating ability in monocytes, sterol panel (monocytes): exhibited immune cell delivery potentiating ability in monocytes

CCCCCCCCCCCCCCCCCC(=O)OCC(COP(=O)([O-])OCC[N+]1(C)CCOCC1)OC(=O)CCCCCCCCCCCCCCCCC (stereo not drawn) [Compound H-409]
immune cell delivery potentiating ability in T cells, helper lipid panel (T cells [1]): exhibited immune cell delivery potentiating ability in T cells
immune cell delivery potentiating ability in T cells, helper lipid panel (T cells [2]; phospholipid component, FIG. 45): exhibited immune cell delivery potentiating ability in T cells
immune cell delivery potentiating ability in monocytes, helper lipid panel (monocytes): exhibited immune cell delivery potentiating ability in monocytes

CCCCCCCCCOC(=O)CCCCCCCN(CCCCCCCC(=O)OC(CCCCCCCC)CCCCCCCC)CCCNc1c(NC)c(=O)c1=O [Compound I-182, Heptadecan-9-yl 8-((3-((2-(methylamino)-3,4-dioxocyclobut-1-en-1-yl)amino)propyl)(8-(nonyloxy)-8-oxooctyl)amino)octanoate]
immune cell delivery potentiating ability in T cells, amino lipid panel (T cells [1]): exhibited immune cell delivery potentiating ability in T cells
immune cell delivery potentiating ability in T cells, amino lipid panel (T cells [2]): exhibited immune cell delivery potentiating ability in T cells
immune cell delivery potentiating ability in monocytes, amino lipid panel (monocytes): exhibited immune cell delivery potentiating ability in monocytes

CC[C@H](CC[C@@H](C)[C@H]1CC[C@H]2[C@@H]3CC[C@H]4C[C@@H](O)CC[C@]4(C)[C@H]3CC[C@]12C)C(C)C [β-sitostanol]
immune cell delivery potentiating ability in T cells, sterol panel (T cells [1]): exhibited immune cell delivery potentiating ability in T cells
immune cell delivery potentiating ability in monocytes, sterol panel (monocytes): exhibited immune cell delivery potentiating ability in monocytes

CC[C@H](CC[C@@H](C)[C@H]1CC[C@H]2[C@@H]3CC=C4C[C@@H](O)CC[C@]4(C)[C@H]3CC[C@]12C)C(C)C [β-sitosterol, beta-sitosterol, reference compound]
immune cell delivery potentiating ability in T cells, sterol panel (T cells [1]): exhibited immune cell delivery potentiating ability in T cells
immune cell delivery potentiating ability in monocytes, sterol panel (monocytes): exhibited immune cell delivery potentiating ability in monocytes

CCCCCCCCC(CC)OC(=O)CCCCCCCN(CCCCCCCC(=O)OC(CCCCCCCC)CCCCCCCC)CCCNc1c(NC)c(=O)c1=O (stereo not drawn) [Compound I-301, Heptadecan-9-yl 8-((3-((2-(methylamino)-3,4-dioxocyclobut-1-en-1-yl)amino)propyl)(8-oxo-8-(undecan-3-yloxy)octyl)amino)octanoate]
capability to transfect splenic CD3+ T cells in vivo (splenic CD3+ T cells): even higher capability to transfect splenic CD3+ T cells in vivo than the positive control LNP containing Compound X
immune cell delivery potentiating ability in T cells, amino lipid panel (T cells [1]): exhibited immune cell delivery potentiating ability in T cells
immune cell delivery potentiating ability in T cells, amino lipid panel (T cells [2]): exhibited immune cell delivery potentiating ability in T cells

CCCCCCCCC(CCCCCCCC)OC(=O)CCCCCCCN(CCCCCCCC(=O)OCC(C)CCCCCCC)CCCNc1c(NC)c(=O)c1=O (stereo not drawn) [Compound I-321]
transfection of CD3+ T cells in vivo, only cholesterol as structural lipid (splenic CD3+ T cells): effective at potentiating transfecting CD3+ T cells in vivo
capability to transfect splenic CD3+ T cells in vivo (splenic CD3+ T cells): even higher capability to transfect splenic CD3+ T cells in vivo than the positive control LNP containing Compound X
delivery and uptake by T cells, only cholesterol as structural lipid (T cells [1]): effective at potentiating delivery and uptake by T cells
immune cell delivery potentiating ability in T cells, amino lipid panel (T cells [1]): exhibited immune cell delivery potentiating ability in T cells
immune cell delivery potentiating ability in T cells, amino lipid panel (T cells [2]): exhibited immune cell delivery potentiating ability in T cells

CCCCCCCC/C=C\CCCCCCCC(=O)OC[C@H](COP(=O)([O-])OCC[N+](C)(C)C)OC(=O)CCCCCCC/C=C\CCCCCCCC [DOPC, 1,2-dioleoyl-sn-glycero-3-phosphocholine, reference compound]
immune cell delivery potentiating ability in monocytes, helper lipid panel (monocytes): exhibited immune cell delivery potentiating ability in monocytes

CC[C@H](/C=C/[C@@H](C)[C@H]1CC[C@H]2[C@@H]3CC=C4C[C@@H](O)CC[C@]4(C)[C@H]3CC[C@]12C)C(C)C [stigmasterol, reference compound]
immune cell delivery potentiating ability in monocytes, sterol panel (monocytes): exhibited immune cell delivery potentiating ability in monocytes

CCCCCCCCCOC(=O)CCCCCCCN(CCCCCCCC(=O)OC(CCCCCCCC)CCCCCCCC)CCCNC(=O)OC [Compound I-181]
immune cell delivery potentiating ability in T cells, amino lipid panel (T cells [1]): exhibited immune cell delivery potentiating ability in T cells
immune cell delivery potentiating ability in T cells, amino lipid panel (T cells [2]): exhibited immune cell delivery potentiating ability in T cells
immune cell delivery potentiating ability in monocytes, amino lipid panel (monocytes): exhibited immune cell delivery potentiating ability in monocytes

CCCCCCCCCOC(=O)CCCCCCCN(CCCCCCCC(=O)OC(CCCCCCCC)CCCCCCCC)CCCNS(C)(=O)=O [Compound I-109]
immune cell delivery potentiating ability in T cells, amino lipid panel (T cells [1]): exhibited immune cell delivery potentiating ability in T cells
immune cell delivery potentiating ability in monocytes, amino lipid panel (monocytes): exhibited immune cell delivery potentiating ability in monocytes

CCCCCCCCCOC(=O)CCCCCCCN(CCCCCCCOC(=O)C(CCCCCCCC)CCCCCCCC)CCCNc1c(NC)c(=O)c1=O [Compound I-326]
transfection of CD3+ T cells in vivo, only cholesterol as structural lipid (splenic CD3+ T cells): effective at potentiating transfecting CD3+ T cells in vivo
capability to transfect splenic CD3+ T cells in vivo (splenic CD3+ T cells): even higher capability to transfect splenic CD3+ T cells in vivo than the positive control LNP containing Compound X
delivery and uptake by T cells, only cholesterol as structural lipid (T cells [1]): effective at potentiating delivery and uptake by T cells
immune cell delivery potentiating ability in T cells, amino lipid panel (T cells [1]): exhibited immune cell delivery potentiating ability in T cells
immune cell delivery potentiating ability in T cells, amino lipid panel (T cells [2]): exhibited immune cell delivery potentiating ability in T cells

CCCCCCCCCCC(=O)CCCCCCCN(CCCCCCCC(=O)OC(CCCCCCCC)CCCCCCCC)CCCNC(=S)N(C)C [Compound I-111]
immune cell delivery potentiating ability in T cells, amino lipid panel (T cells [1]): exhibited immune cell delivery potentiating ability in T cells
immune cell delivery potentiating ability in monocytes, amino lipid panel (monocytes): exhibited immune cell delivery potentiating ability in monocytes

CCCCCCCCCCCCCC(=O)OCC(COP(=O)(O)OCCN)OC(=O)CCCCCCCCCCCCC (stereo not drawn) [DMPE]
immune cell delivery potentiating ability in T cells, helper lipid panel (T cells [1]): exhibited immune cell delivery potentiating ability in T cells
immune cell delivery potentiating ability in monocytes, helper lipid panel (monocytes): exhibited immune cell delivery potentiating ability in monocytes
